These results are taken from PMC9602792, “Preclinical evaluation of the epithelial sodium channel inhibitor AZD5634 and implications on human translation” (American Journal of Physiology - Lung Cellular and …, 2022).

One assay concerns healthy sheep. Description: Mucociliary clearance (99mTc-sulfur colloid) in healthy sheep after nebulized drug. The assay is classed as in vivo. From the text: Twenty-one adult female Florida native sheep (37–54 kg, Fair Meadow Sheep) were used in the present study, once or twice with a washout of at least 1 wk between experiments. Animals were restrained in an upright position in a specialized body harness in modified carts. The head of the animal was immobilized, and after local anesthesia of the nasal passage was induced with 2% lidocaine, the animals were nasally intubated with a standard endotracheal tube (7.5 mm diameter, Mallinckrodt, St. Louis, MO). A flexible bronchoscope was used to guide the tube and verify its position in the trachea. After intubation, the animals were allowed to rest for ∼20 min before administration of any agent.
Nebulized drug or placebo was given as an aerosol where 3 mL volume (compound in 10% EtOH:90% saline) was delivered at a tidal volume of 300 mL. To maximize central deposition in the airways, a dosimeter was used to deliver the compound. The nebulizer was connected to the dosimeter system consisting of a solenoid valve and a source of compressed air (20 psi). The output of the nebulizer was connected to a T-piece, with one end attached to a respirator (Harvard Apparatus Inc., Holliston, MA). The system was activated for 1 s at the onset of the inspiratory cycle of the respirator, which was set at an inspiratory/expiratory ratio of 1:1 and a rate of 20 breaths/min. To evaluate the effect of repeated dosing, AZD5634 was given twice daily for 4 days and MCC was measured 8 h after the 7th dose.
MCC rate was measured by means of aerosolized technetium-labeled sulfur colloid (^99mTC-SC) and nebulized via the same dosimeter system as for the drug administration. […] Aerosol ^99mTC-SC was generated using an Air Life nebulizer (CareFusion, Yorba Linda, CA). Approximately 20 mCi of ^99mTC-SC in a total of 2 mL of sterile saline was placed in the nebulizer. A tidal volume of 500 mL was used to deliver the ^99mTC-SC over 3 min.
Blood was kept on ice until centrifuged (4,000 g, 5 min, 4°C) and plasma (approximately 2 mL) was transferred to two Eppendorf tubes per sample and frozen at −20°C until analyzed. Sodium and potassium concentrations were analyzed at Mount Sinai Medical Center immediately after sampling and before centrifugation (IRMA TruPoint Analysis System). The plasma samples for analysis of drug concentration were shipped on dry ice to AstraZeneca R&D, Mölndal, Gothenburg and analyzed by means of LC-MSMS (001–04 Method for Blood Plasma Analysis).
Rat electrolyte data were analyzed by means of repeated-measures ANCOVA (SAS v.9).

In the next assay the test system is Cftr^−/− rats. Description: μOCT of trachea and lungs excised en bloc from Cftr-knockout rats treated in vivo. The arrangement: species or system rat. To be noted: seven 200-μL doses of 54 µM by oropharyngeal aspiration over 4 days; not significant vs vehicle. Here is the method: μOCT imaging and analysis were conducted in vitro and ex vivo as detailed in previous publications ([2], [39]–[41]). Briefly, the μOCT system uses light reflectance to produce video-rate (40 frames/s and 512 lines/frame), high-resolution images (1 micron) captured in real-time and without disruption of sample tissue, permitting simultaneous interrogation of key parameters of airway microanatomy without the addition of exogenous particles or dyes. Following imaging of HBEC cultures and of excised trachea and lungs, images were assessed to obtain quantitative measurements of mucociliary transport (MCT) rate, ASL depth, and ciliary beat frequency (CBF). MCT rates were calculated by analyzing the distance traveled by native particles in the mucus layer over time across multiple frames. Direct geometric measurement of layer thickness (Image J software) yielded ASL depths. CBF was determined by using custom code developed in Matlab (Mathworks, Natick, MA) to quantify the reflectance of beating cilia by Fourier analysis. […] The results for each trachea and lung sample reflected an average of measurements from images obtained from a minimum of six controlled points along the tracheal length, using the cranial end as a reference.
Six-month-old Cftr-knockout rats (female and male) were treated with seven 200-μL doses of either 54 µM AZD5634 or vehicle control, delivered by oropharyngeal aspiration, over 4 days (two doses daily for 3 days and a single dose on the 4th day, 2 h before euthanasia). Rats were euthanized by intraperitoneal injection of pentobarbital sodium (Fatal Plus, 100 mg/kg), and trachea and lungs were excised en bloc and dissected along the dorsal surface from the larynx to the terminal end of the main stem bronchi. […]
Descriptive statistics were calculated and means compared using unpaired or paired t tests, or ANOVA, with post hoc analyses conducted for multiple comparisons where appropriate. […]

Assay [1] deals with amiloride-sensitive potential difference. The arrangement: method as in PMID 35227647. To be noted: perfused to the nasal surface, people with CF; cited from earlier work.

Take AZD5634: in the assay on healthy sheep (3 μg/kg bid for 4 days (7 doses), MCC 8 h after 7th dose), the “MCC effect after repeated administration” value was “effect magnitude was maintained compared with single-dose studies”. In addition, the “duration of MCC effect” value with healthy sheep (12 μg/kg given 0, 4, 8, 12, 24 h before 99mTc) was “retained for 8 h, with approximately half left at 12 h and another half of the remaining effect gone by 24 h”. The “dose giving max effect on MCC” value in the assay with healthy sheep (dose-response 1–330 µg/kg, healthy sheep) amounted to 0.12 mg/kg. This substance registered a dose giving max efficacy on MCC in the assay on healthy sheep (dose-response, healthy sheep) of 0.12 mg/kg. In the assay on healthy sheep (nebulized 1–330 µg/kg, given just before 99mTc), the “effect on MCC” value is “dose-dependent effect on MCC”. In the assay on healthy sheep (normal sheep in vivo), the “peak effect on mucus clearance (augmentation)” value amounted to 30%. For the same substance, in the assay with Cftr^−/− rats, the ASL depth is reported as 15.8 ± 2.1 µm, the MCT rate was found to be 0.3 ± 0.1 mm/min and the “ciliary beating (CBF)” value came out at 7.9 ± 0.7 Hz. For the same substance, the “effect on amiloride-sensitive nasal potential difference” value in assay [1] is listed as “acutely inhibited amiloride-sensitive potential difference”.
